# “And” between values parts separate entries of the source, which are not always exact repeats. Identical values can stand only once.
# System: 233499-124-R-J3-PDC complex spheroid growth
# Test: Anticancer human tumor 233499-124-R-J3-PDC patient-derived colon adenocarcinoma cell line growth inhibition [AhR]
# Conditions: for viability, T/C: stronger effect = lower value
# In short: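 Agents were dosed in half-log steps down from roughly clinical Cmax, or from 10 microM where Cmax was unknown, alone and with AhR antagonists. Read-out: percent test/control growth of tumor spheroids containing HUVEC and MSC stromal cells.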
# [1] = curve of first compound, second compound 0.1 µM
# [2] = curve of first compound, second compound 0.316 µM
# [3] = curve of first compound, second compound 1 µM
# [4] = curve of first compound, second compound 3.16 µM
# [5] = curve of first compound, second compound 10 µM
# [6] = second compound 0.1 µM, first compound 0.0316 µM
# [7] = second compound 0.1 µM, first compound 0.1 µM
# [8] = second compound 0.1 µM, first compound 0.316 µM
# [9] = second compound 0.1 µM, first compound 1 µM
# [10] = second compound 0.1 µM, first compound 3.16 µM
# [11] = second compound 0.1 µM, first compound 10 µM
# [12] = second compound 0.316 µM, first compound 0.0316 µM
# [13] = second compound 0.316 µM, first compound 0.1 µM
# [14] = second compound 0.316 µM, first compound 0.316 µM
# [15] = second compound 0.316 µM, first compound 1 µM
# [16] = second compound 0.316 µM, first compound 3.16 µM
# [17] = second compound 0.316 µM, first compound 10 µM
# [18] = second compound 1 µM, first compound 0.0316 µM
# [19] = second compound 1 µM, first compound 0.1 µM
# [20] = second compound 1 µM, first compound 0.316 µM
# [21] = second compound 1 µM, first compound 1 µM
# [22] = second compound 1 µM, first compound 3.16 µM
# [23] = second compound 1 µM, first compound 10 µM
# [24] = second compound 3.16 µM, first compound 0.0316 µM
# [25] = second compound 3.16 µM, first compound 0.1 µM
# [26] = second compound 3.16 µM, first compound 0.316 µM
# [27] = second compound 3.16 µM, first compound 1 µM
# [28] = second compound 3.16 µM, first compound 3.16 µM
# [29] = second compound 3.16 µM, first compound 10 µM
# [30] = second compound 10 µM, first compound 0.0316 µM
# [31] = second compound 10 µM, first compound 0.1 µM
# [32] = second compound 10 µM, first compound 0.316 µM
# [33] = second compound 10 µM, first compound 1 µM
# [34] = second compound 10 µM, first compound 3.16 µM
# [35] = second compound 10 µM, first compound 10 µM
# 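Further: spheroids exposed to agents for seven days before reading.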
smiles,measurement,setting,value
CCc1c2c(nc3ccc(O)cc13)-c1cc3c(c(=O)n1C2)COC(=O)[C@]3(O)CC + Cc1cncc(-c2nc(NCCc3c[nH]c4ccccc34)c3ncn(C(C)C)c3n2)c1,IC50,[1],> 300 nM
same,IC50,[2],> 300 nM
same,IC50,[3],> 300 nM
same,IC50,[4],> 300 nM
same,IC50,[5],< 0.949 nM
same,"viability, T/C","second compound 0.1 µM, first compound 0.000949 µM",97%
same,"viability, T/C","second compound 0.1 µM, first compound 0.003 µM",99.5%
same,"viability, T/C","second compound 0.1 µM, first compound 0.00949 µM",77.6%
same,"viability, T/C","second compound 0.1 µM, first compound 0.03 µM",77.5%
same,"viability, T/C","second compound 0.1 µM, first compound 0.0949 µM",71.1%
same,"viability, T/C","second compound 0.1 µM, first compound 0.3 µM",91.8%
same,"viability, T/C","second compound 0.316 µM, first compound 0.000949 µM",101%
same,"viability, T/C","second compound 0.316 µM, first compound 0.003 µM",89.9%
same,"viability, T/C","second compound 0.316 µM, first compound 0.00949 µM",71.9%
same,"viability, T/C","second compound 0.316 µM, first compound 0.03 µM",67.2%
same,"viability, T/C","second compound 0.316 µM, first compound 0.0949 µM",66.4%
same,"viability, T/C","second compound 0.316 µM, first compound 0.3 µM",67.6%
same,"viability, T/C","second compound 1 µM, first compound 0.000949 µM",86.4%
same,"viability, T/C","second compound 1 µM, first compound 0.003 µM",89.1%
same,"viability, T/C","second compound 1 µM, first compound 0.00949 µM",70%
same,"viability, T/C","second compound 1 µM, first compound 0.03 µM",81%
same,"viability, T/C","second compound 1 µM, first compound 0.0949 µM",94.3%
same,"viability, T/C","second compound 1 µM, first compound 0.3 µM",64.3%
same,"viability, T/C","second compound 3.16 µM, first compound 0.000949 µM",90%
same,"viability, T/C","second compound 3.16 µM, first compound 0.003 µM",96.2%
same,"viability, T/C","second compound 3.16 µM, first compound 0.00949 µM",72.3%
same,"viability, T/C","second compound 3.16 µM, first compound 0.03 µM",86.1%
same,"viability, T/C","second compound 3.16 µM, first compound 0.0949 µM",70%
same,"viability, T/C","second compound 3.16 µM, first compound 0.3 µM",65.3%
same,"viability, T/C","second compound 10 µM, first compound 0.000949 µM",10.4%
same,"viability, T/C","second compound 10 µM, first compound 0.003 µM",13.7%
same,"viability, T/C","second compound 10 µM, first compound 0.00949 µM",21.5%
same,"viability, T/C","second compound 10 µM, first compound 0.03 µM",17%
same,"viability, T/C","second compound 10 µM, first compound 0.0949 µM",9.13%
same,"viability, T/C","second compound 10 µM, first compound 0.3 µM",7.22%
NS(=O)(=O)OCC1CC(n2ccc3c(NC4CCc5ccccc54)ncnc32)CC1O (centres undefined) + Cc1cncc(-c2nc(NCCc3c[nH]c4ccccc34)c3ncn(C(C)C)c3n2)c1,IC50,[1],622 nM
same,IC50,[2],523 nM
same,IC50,[3],515 nM
same,IC50,[4],203 nM
same,IC50,[5],< 31.6 nM
same,"viability, T/C",[6],98.7%
same,"viability, T/C",[7],107%
same,"viability, T/C",[8],98.2%
same,"viability, T/C",[9],16.1%
same,"viability, T/C",[10],3.52%
same,"viability, T/C",[11],1.45%
same,"viability, T/C",[12],103%
same,"viability, T/C",[13],101%
same,"viability, T/C",[14],81.4%
same,"viability, T/C",[15],9.63%
same,"viability, T/C",[16],2.6%
same,"viability, T/C",[17],2.07%
same,"viability, T/C",[18],102%
same,"viability, T/C",[19],79.7%
same,"viability, T/C",[20],83.1%
same,"viability, T/C",[21],4.87%
same,"viability, T/C",[22],3.05%
same,"viability, T/C",[23],5.22%
same,"viability, T/C",[24],93.6%
same,"viability, T/C",[25],74.9%
same,"viability, T/C",[26],35.1%
same,"viability, T/C",[27],3.64%
same,"viability, T/C",[28],2.03%
same,"viability, T/C",[29],1%
same,"viability, T/C",[30],20.5%
same,"viability, T/C",[31],17.1%
same,"viability, T/C",[32],23.3%
same,"viability, T/C",[33],1.9%
same,"viability, T/C",[34],1.17%
same,"viability, T/C",[35],0.46%
COc1cc(Nc2ncc3c(n2)-c2ccc(Cl)cc2C(c2c(F)cccc2OC)=NC3)ccc1C(=O)O + Cc1cncc(-c2nc(NCCc3c[nH]c4ccccc34)c3ncn(C(C)C)c3n2)c1,IC50,[1],> 10000 nM
same,IC50,[2],> 10000 nM
same,IC50,[3],> 10000 nM
same,IC50,[4],> 10000 nM
same,IC50,[5],< 31.6 nM
same,"viability, T/C",[6],81%
same,"viability, T/C",[7],71.7%
same,"viability, T/C",[8],81.5%
same,"viability, T/C",[9],100%
same,"viability, T/C",[10],89%
same,"viability, T/C",[11],84.2%
same,"viability, T/C",[12],84.8%
same,"viability, T/C",[13],56.9%
same,"viability, T/C",[14],83.2%
same,"viability, T/C",[15],76.9%
same,"viability, T/C",[16],75.6%
same,"viability, T/C",[17],82.5%
same,"viability, T/C",[18],78%
same,"viability, T/C",[19],68.4%
same,"viability, T/C",[20],77.8%
same,"viability, T/C",[21],77.9%
same,"viability, T/C",[22],70.1%
same,"viability, T/C",[23],87.6%
same,"viability, T/C",[24],60.5%
same,"viability, T/C",[25],50.9%
same,"viability, T/C",[26],76.8%
same,"viability, T/C",[27],67.2%
same,"viability, T/C",[28],58%
same,"viability, T/C",[29],71.7%
same,"viability, T/C",[30],8.18%
same,"viability, T/C",[31],22.4%
same,"viability, T/C",[32],26.9%
same,"viability, T/C",[33],10.4%
same,"viability, T/C",[34],29.2%
same,"viability, T/C",[35],39.9%
Nc1ncn(C2CC(O)C(CO)S2)c(=O)n1 (centres undefined),"viability, T/C",compound 0.000949 µM,94.5% and 95.6% and 104%
same,"viability, T/C",compound 0.003 µM,108% and 104% and 118%
same,"viability, T/C",compound 0.00949 µM,102% and 112% and 110%
same,"viability, T/C",compound 0.03 µM,107% and 101% and 116%
same,"viability, T/C",compound 0.0949 µM,103% and 105% and 100%
same,"viability, T/C",compound 0.3 µM,98.6% and 109% and 104%
same,IC50,curve of compound,> 300 nM
Nc1ncn(C2CC(O)C(CO)O2)c(=O)n1 (centres undefined) + Cc1ccccc1N=Nc1ccc(NC(=O)c2ccnn2C)c(C)c1,IC50,[1],> 1000 nM
same,IC50,[2],> 1000 nM
same,IC50,[3],> 1000 nM
same,IC50,[4],> 1000 nM
same,IC50,[5],> 1000 nM
same,"viability, T/C","second compound 0.1 µM, first compound 0.00316 µM",102%
same,"viability, T/C","second compound 0.1 µM, first compound 0.01 µM",104%
same,"viability, T/C",[6],91.7%
same,"viability, T/C",[7],98.6%
same,"viability, T/C",[8],91.5%
same,"viability, T/C",[9],111%
same,"viability, T/C","second compound 0.316 µM, first compound 0.00316 µM",81%
same,"viability, T/C","second compound 0.316 µM, first compound 0.01 µM",91.6%
same,"viability, T/C",[12],93.6%
same,"viability, T/C",[13],82.9%
same,"viability, T/C",[14],102%
same,"viability, T/C",[15],84.5%
same,"viability, T/C","second compound 1 µM, first compound 0.00316 µM",93.2%
same,"viability, T/C","second compound 1 µM, first compound 0.01 µM",104%
same,"viability, T/C",[18],105%
same,"viability, T/C",[19],107%
same,"viability, T/C",[20],103%
same,"viability, T/C",[21],113%
same,"viability, T/C","second compound 3.16 µM, first compound 0.00316 µM",109%
same,"viability, T/C","second compound 3.16 µM, first compound 0.01 µM",97.3%
same,"viability, T/C",[24],107%
same,"viability, T/C",[25],92.5%
same,"viability, T/C",[26],103%
same,"viability, T/C",[27],97.4%
same,"viability, T/C","second compound 10 µM, first compound 0.00316 µM",116%
same,"viability, T/C","second compound 10 µM, first compound 0.01 µM",114%
same,"viability, T/C",[30],108%
same,"viability, T/C",[31],106%
same,"viability, T/C",[32],115%
same,"viability, T/C",[33],114%
Nc1ccccc1NC(=O)c1ccc(CNC(=O)OCc2cccnc2)cc1,"viability, T/C",compound 0.0316 µM,91.6% and 84.4% and 104%
same,"viability, T/C",compound 0.1 µM,97.2% and 106% and 99.6%
same,"viability, T/C",compound 0.316 µM,105% and 112% and 109%
same,"viability, T/C",compound 1 µM,98% and 113% and 100%
same,"viability, T/C",compound 3.16 µM,43.9% and 84.1% and 51.4%
same,"viability, T/C",compound 10 µM,5.82% and 10.2% and 8.69%
same,IC50,curve of compound,2780 nM and 5370 nM and 3280 nM
